Data taken from the supplement of paper PMC11451515.

Test system: P12-Ichikawa
Test: cell viability relative to DMSO control; higher = less cytotoxic
Conditions: 48 h
Summary of the method: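 Viability is a per-plate percentage relative to DMSO wells, with cell-free wells as background. CellTiter-Glo One luminescence was read after 48 h at 37°C on 1536-well plates (5 μl) of NOMO1 or SEM (500 cells/well) or P12-Ichikawa (1000 cells/well) leukemia cells. The cells had been adapted for at least four passages in each medium and pin-dosed with library compounds in DMSO from 47 μM to 0.79 nM in 11 threefold steps.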

[1] = HPLM + 10% dialyzed FBS, 0.000781 µM
[2] = HPLM + 10% dialyzed FBS, 0.00234 µM
[3] = HPLM + 10% dialyzed FBS, 0.00702 µM
[4] = HPLM + 10% dialyzed FBS, 0.0211 µM
[5] = HPLM + 10% dialyzed FBS, 0.0632 µM
[6] = HPLM + 10% dialyzed FBS, 0.19 µM
[7] = HPLM + 10% dialyzed FBS, 0.569 µM
[8] = HPLM + 10% dialyzed FBS, 1.71 µM
[9] = HPLM + 10% dialyzed FBS, 5.12 µM
[10] = HPLM + 10% dialyzed FBS, 15.4 µM
[11] = HPLM + 10% dialyzed FBS, 46.1 µM
[12] = RPMI 5 mM glucose + 10% FBS, 0.000781 µM
[13] = RPMI 5 mM glucose + 10% FBS, 0.00234 µM
[14] = RPMI 5 mM glucose + 10% FBS, 0.00702 µM
[15] = RPMI 5 mM glucose + 10% FBS, 0.0211 µM
[16] = RPMI 5 mM glucose + 10% FBS, 0.0632 µM
[17] = RPMI 5 mM glucose + 10% FBS, 0.19 µM
[18] = RPMI 5 mM glucose + 10% FBS, 0.569 µM
[19] = RPMI 5 mM glucose + 10% FBS, 1.71 µM
[20] = RPMI 5 mM glucose + 10% FBS, 5.12 µM
[21] = RPMI 5 mM glucose + 10% FBS, 15.4 µM
[22] = RPMI 5 mM glucose + 10% FBS, 46.1 µM
[23] = RPMI 5 mM glucose + 10% dialyzed FBS, 0.000781 µM
[24] = RPMI 5 mM glucose + 10% dialyzed FBS, 0.00234 µM
[25] = RPMI 5 mM glucose + 10% dialyzed FBS, 0.00702 µM
[26] = RPMI 5 mM glucose + 10% dialyzed FBS, 0.0211 µM
[27] = RPMI 5 mM glucose + 10% dialyzed FBS, 0.0632 µM
[28] = RPMI 5 mM glucose + 10% dialyzed FBS, 0.19 µM
[29] = RPMI 5 mM glucose + 10% dialyzed FBS, 0.569 µM
[30] = RPMI 5 mM glucose + 10% dialyzed FBS, 1.71 µM
[31] = RPMI 5 mM glucose + 10% dialyzed FBS, 5.12 µM
[32] = RPMI 5 mM glucose + 10% dialyzed FBS, 15.4 µM
[33] = RPMI 5 mM glucose + 10% dialyzed FBS, 46.1 µM

SMILES	cell viability [1]	cell viability [2]	cell viability [3]	cell viability [4]	cell viability [5]	cell viability [6]	cell viability [7]	cell viability [8]	cell viability [9]	cell viability [10]	cell viability [11]	cell viability [12]	cell viability [13]	cell viability [14]	cell viability [15]	cell viability [16]	cell viability [17]	cell viability [18]	cell viability [19]	cell viability [20]	cell viability [21]	cell viability [22]	cell viability [23]	cell viability [24]	cell viability [25]	cell viability [26]	cell viability [27]	cell viability [28]	cell viability [29]	cell viability [30]	cell viability [31]	cell viability [32]	cell viability [33]
O=C(NCC[S+](=O)([O-])c1ccc(C(F)(F)F)cn1)c1ccc(Cl)cc1	115%	116%	121%	115%	118%	117%	115%	117%	110%	112%	108%	117%	124%	118%	127%	117%	115%	111%	107%	119%	107%	109%	112%	126%	121%	121%	120%	116%	115%	103%	115%	102%	102%
OC1=C(O)C2=C(\C=C/C(=O)O2)C=C1	99%	104%	114%	107%	101%	119%	114%	117%	114%	107%	81.1%	109%	115%	118%	110%	99.4%	113%	124%	116%	112%	109%	68%	95.1%	109%	104%	104%	101%	97.5%	98%	107%	105%	103%	58.3%
CC(=O)Nc1ccc(OC[C@](C)(O)C(=O)Nc2ccc([N+](=O)[O-])c(C(F)(F)F)c2)cc1	74.6%	87%	84.5%	87.8%	85.5%	89.1%	88.4%	88.6%	90.8%	91.6%	86.5%	63.5%	76.8%	71.1%	87%	85.5%	77%	80.6%	83.8%	85.1%	86.3%	81.2%	67.3%	76.4%	77.3%	78.2%	92.5%	76.4%	80%	83.4%	80.3%	85.8%	80.7%
CCCCCCCCCCCCCCCCCCCCCCO	122%	125%	118%	125%	126%	126%	132%	133%	127%	137%	140%																						
Oc1ccc2c3c1O[C@H]1c4[nH]c5c(c4C[C@@]4(O)[C@@H](C2)N(CC2CC2)CC[C@]314)C[C@@]1(O)[C@H]2Cc3ccc(O)c4c3[C@@]1(CCN2CC1CC1)[C@H]5O4	100%	111%	113%	117%	120%	118%	130%	121%	120%	119%	121%	114%	123%	118%	122%	122%	124%	115%	126%	127%	137%	132%	97.8%	110%	113%	112%	120%	123%	117%	122%	119%	129%	134%
ClC1=C(N\C2=N\CCN2)C3=NSN=C3C=C1	106%	117%	122%	130%	119%	117%	119%	115%	120%	127%	124%												107%	115%	114%	127%	124%	116%	129%	115%	124%	120%	127%
Nc1ccccc1NC(=O)c1ccc(CNC(=O)OCc2cccnc2)cc1	111%	118%	110%	113%	105%	107%	98.4%	73.4%	20%	5.58%	4.41%	106%	112%	108%	122%	108%	102%	113%	71.6%	27.8%	4.9%	3.42%	109%	111%	108%	113%	114%	113%	99.6%	69.1%	21.4%	5.4%	3.96%
[NH2][Pt]1([NH2])[O]CC(=O)[O]1	93.6%	98.4%	101%	95.7%	105%	102%	102%	101%	105%	103%	105%	98.5%	88.3%	96.9%	99.5%	104%	99.2%	102%	88.5%	92.4%	95.2%	102%	86.2%	93%	96.4%	89.4%	92.1%	89.9%	97.8%	89.6%	91.1%	92.4%	93.8%
NC1(Cc2ccc(Cl)cc2)CCN(c2ncnc3[nH]ccc23)CC1	105%	109%	105%	108%	106%	103%	102%	94.7%	82.3%	65.8%	48.3%	101%	99.4%	101%	99.7%	91.9%	97.8%	84.7%	73.1%	53.7%	40.7%	28.5%	103%	103%	104%	102%	102%	91.1%	91%	79.6%	66.9%	47%	34.5%
CCc1cc(Nc2nccc(-c3c(-c4ccc(OC)c(C(=O)Nc5c(F)cccc5F)c4)nc4ccccn34)n2)c(OC)cc1N1CCC(N2CCN([S+](C)(=O)[O-])CC2)CC1	97.9%	108%	100%	112%	107%	112%	110%	110%	112%	87.1%	39.8%	98.3%	101%	106%	105%	107%	113%	111%	113%	109%	85.1%	37.9%	108%	116%	112%	114%	107%	107%	109%	125%	115%	87.4%	49.6%
CC/1=C/C(=O)N(O)/C(=C1)C2CCCCC2	115%	118%	123%	132%	130%	125%	121%	127%	113%	74.8%	28.5%																						
CC(NC1=CC=CC=C1)C\2=C\C(=C/N3C(=O)\C=C(/N=C23)N4CCOCC4)C (stereo unspecified)	101%	100%	107%	110%	109%	110%	115%	115%	110%	106%	101%	95.9%	98%	97.4%	98.1%	102%	110%	115%	113%	101%	112%	102%	88.6%	93.6%	114%	110%	99.1%	115%	110%	116%	105%	106%	111%
CCC(C)SSc1ncc[nH]1 (stereo unspecified)	91.9%	99.9%	97.1%	105%	98.2%	103%	94.9%	111%	101%	69.5%	10.6%	92.8%	102%	91.1%	90%	96.1%	95%	93.8%	98.1%	99.7%	62.1%	6.08%	92%	91.4%	93.5%	90.4%	90.1%	95.8%	89.9%	97.6%	92%	34.8%	5.7%
C\C1=C\C(=O)OC2=C1C=CC(=C2)O	122%	121%	121%	122%	109%	116%	108%	107%	106%	102%	93%	112%	119%	115%	122%	109%	114%	107%	111%	99.9%	118%	99.1%	122%	115%	114%	122%	120%	108%	114%	104%	103%	104%	106%
Cc1c(CN2CCN(C(=O)[C@H](C)O)CC2)sc2c(N3CCOCC3)nc(-c3cnc(N)nc3)nc12	96.6%	99.8%	99.1%	103%	94.9%	99.8%	75%	69.3%	63.8%	60.8%	59.8%	95.6%	94%	90.7%	86.8%	75.1%	79.5%	64.4%	52.9%	49.4%	46.2%	43.5%	93.5%	94.8%	97.4%	98.5%	81.6%	77.8%	63.1%	54.5%	41.9%	46%	42.6%
CC/C(=C(/c1ccc(O)cc1)c1ccc(OCCNC)cc1)c1ccccc1	105%	108%	110%	115%	118%	94.8%	104%	106%	71.9%	63%	68.6%	116%	108%	109%	108%	114%	122%	113%	107%	68.3%	53.7%	42%	115%	116%	116%	117%	120%	126%	119%	101%	64.7%	49.4%	46.5%
COC1CCC(CC1)N(C(=O)C2CCC(C)CC2)C3=C(SC(=C3)\C4=C\CCCC4)C(O)=O (stereo unspecified)	118%	118%	116%	111%	108%	113%	111%	104%	95.3%	83.5%	60%	109%	112%	109%	108%	92.8%	106%	105%	98.2%	94.9%	88.7%	65.6%	103%	105%	111%	110%	101%	102%	105%	97.6%	98.9%	77.8%	63.9%
